Columns and labels:
RANCA tumor tissues = assay: Tumor-infiltrating lymphocyte assays in RANCA tumor tissues; format: in vivo, mouse
VEGFR2 = VEGFR2 (Homo sapiens, UniProt P35968); assay: Cell-free kinase assay VEGFR2; format: biochemical
BaF3(Bcr-Abl) M244V = BaF3(Bcr-Abl) M244V (Homo sapiens, UniProt P00519, M244V, cells depend on it); conditions: read-out: Anti-proliferation (IC50)
Protocol: (§1) The anti-proliferative effect was determined by a water-soluble tetrazolium (WST)-based assay using Cell Counting Kit-8 (CCK-8, #D3100L4057, Shanghai life ilab bio technology co., LTD, China). Cells were seeded in 96-well plates and treated with different concentrations of test articles. […] Each treatment was tested in triplicates. The plate was then cultured at 37° C. with 5% CO2 for 72 hours. At the end of treatments, 20 μl/well of CCK-8 reagent was directly added to each wells. The plate was then incubated at 37° C. with 5% CO2 for 2-4 h. The OD value was detected at 450 nm on a microplate reader (SpectraMax I3X, Molecular Devices, US). IC50 values were calculated with Graphpad Prism 7.0 software using nonlinear regression (curve fitting) type data analysis. For combination effect assay, the cells viability was normalized using the mean OD value of triplicated wells for the single agent control.

BaF3(Bcr-Abl) V299L-F39V = BaF3(Bcr-Abl) V299L-F39V (Homo sapiens, UniProt P00519, V299L/F359V, cells depend on it); conditions: read-out: Anti-proliferation (IC50)
Protocol: as §1

BaF3(Bcr-Abl) Wild-type = BaF3(Bcr-Abl) Wild-type (Homo sapiens, UniProt P00519); conditions: read-out: Anti-proliferation (IC50)
Protocol: as §1

[1] = biological target: BaF3(Bcr-Abl) T316I-M244V (Homo sapiens, UniProt P00519, M244V/T315I, cells depend on it); conditions: read-out: Anti-proliferation (IC50)
Protocol: as §1

[2] = biological target: BaF3(Bcr-Abl) G250E-V299L (Homo sapiens, UniProt P00519, G250E/V299L, cells depend on it); conditions: read-out: Anti-proliferation (IC50)
Protocol: as §1

[3] = biological target: BaF3(Bcr-Abl) T315I-H396R (Homo sapiens, UniProt P00519, T315I/H396R, cells depend on it); conditions: read-out: Anti-proliferation (IC50)
Protocol: as §1

[4] = biological target: BaF3(Bcr-Abl) T315I-E453K (Homo sapiens, UniProt P00519, T315I/E453K, cells depend on it); conditions: read-out: Anti-proliferation (IC50)
Protocol: as §1

[5] = biological target: BaF3(Bcr-Abl) T315I-E255V (Homo sapiens, UniProt P00519, E255V/T315I, cells depend on it); conditions: read-out: Anti-proliferation (IC50)
Protocol: as §1

BaF3(Bcr-Abl) E459L = BaF3(Bcr-Abl) E459L (Homo sapiens, UniProt P00519, cells depend on it, form not given); conditions: read-out: Anti-proliferation (IC50)
Protocol: as §1

BaF3(Bcr-Abl) F359V = BaF3(Bcr-Abl) F359V (Homo sapiens, UniProt P00519, F359V, cells depend on it); conditions: read-out: Anti-proliferation (IC50)
Protocol: as §1

[6] = biological target: BaF3(Bcr-Abl) T315I-E459K (Homo sapiens, UniProt P00519, T315I/E459K, cells depend on it); conditions: read-out: Anti-proliferation (IC50)
Protocol: as §1

BaF3(Bcr-Abl) 7253H = BaF3(Bcr-Abl) 7253H (Homo sapiens, UniProt P00519, Y253H, cells depend on it); conditions: read-out: Anti-proliferation (IC50)
Protocol: as §1

BaF3(Bcr-Abl) G250E = BaF3(Bcr-Abl) G250E (Homo sapiens, UniProt P00519, G250E, cells depend on it); conditions: read-out: Anti-proliferation (IC50)
Protocol: as §1

BaF3(Bcr-Abl) T315I-255K = BaF3(Bcr-Abl) T315I-255K (Homo sapiens, UniProt P00519, E255K/T315I, cells depend on it); conditions: read-out: Anti-proliferation (IC50)
Protocol: as §1

[7] = biological target: BaF3(Bcr-Abl) F317L-F359V (Homo sapiens, UniProt P00519, F317L/F359V, cells depend on it); conditions: read-out: Anti-proliferation (IC50)
Protocol: as §1

BaF3(Bcr-Abl) M351T = BaF3(Bcr-Abl) M351T (Homo sapiens, UniProt P00519, M351T, cells depend on it); conditions: read-out: Anti-proliferation (IC50)
Protocol: as §1

[8] = biological target: BaF3(Bcr-Abl) T315I-M351T (Homo sapiens, UniProt P00519, T315I/M351T, cells depend on it); conditions: read-out: Anti-proliferation (IC50)
Protocol: as §1

BaF3(Bcr-Abl) E255K = BaF3(Bcr-Abl) E255K (Homo sapiens, UniProt P00519, E255K, cells depend on it); conditions: read-out: Anti-proliferation (IC50)
Protocol: as §1

[9] = biological target: BaF3(Bcr-Abl) Y253H-E255V (Homo sapiens, UniProt P00519, Y253H/E255V, cells depend on it); conditions: read-out: Anti-proliferation (IC50)
Protocol: as §1

BaF3(Bcr-Abl) F317L = BaF3(Bcr-Abl) F317L (Homo sapiens, UniProt P00519, F317L, cells depend on it); conditions: read-out: Anti-proliferation (IC50)
Protocol: as §1

BaF3(Bcr-Abl) E453K = BaF3(Bcr-Abl) E453K (Homo sapiens, UniProt P00519, E453K, cells depend on it); conditions: read-out: Anti-proliferation (IC50)
Protocol: as §1

BaF3(Bcr-Abl) F311I = BaF3(Bcr-Abl) F311I (Homo sapiens, UniProt P00519, F311I, cells depend on it); conditions: read-out: Anti-proliferation (IC50)
Protocol: as §1

BaF3(Bcr-Abl) V299L = BaF3(Bcr-Abl) V299L (Homo sapiens, UniProt P00519, V299L, cells depend on it); conditions: read-out: Anti-proliferation (IC50)
Protocol: as §1

[10] = biological target: BaF3(Bcr-Abl) F317L-M351T (Homo sapiens, UniProt P00519, F317L/M351T, cells depend on it); conditions: read-out: Anti-proliferation (IC50)
Protocol: as §1

VEGFR2, sequence (P35968 20-1356): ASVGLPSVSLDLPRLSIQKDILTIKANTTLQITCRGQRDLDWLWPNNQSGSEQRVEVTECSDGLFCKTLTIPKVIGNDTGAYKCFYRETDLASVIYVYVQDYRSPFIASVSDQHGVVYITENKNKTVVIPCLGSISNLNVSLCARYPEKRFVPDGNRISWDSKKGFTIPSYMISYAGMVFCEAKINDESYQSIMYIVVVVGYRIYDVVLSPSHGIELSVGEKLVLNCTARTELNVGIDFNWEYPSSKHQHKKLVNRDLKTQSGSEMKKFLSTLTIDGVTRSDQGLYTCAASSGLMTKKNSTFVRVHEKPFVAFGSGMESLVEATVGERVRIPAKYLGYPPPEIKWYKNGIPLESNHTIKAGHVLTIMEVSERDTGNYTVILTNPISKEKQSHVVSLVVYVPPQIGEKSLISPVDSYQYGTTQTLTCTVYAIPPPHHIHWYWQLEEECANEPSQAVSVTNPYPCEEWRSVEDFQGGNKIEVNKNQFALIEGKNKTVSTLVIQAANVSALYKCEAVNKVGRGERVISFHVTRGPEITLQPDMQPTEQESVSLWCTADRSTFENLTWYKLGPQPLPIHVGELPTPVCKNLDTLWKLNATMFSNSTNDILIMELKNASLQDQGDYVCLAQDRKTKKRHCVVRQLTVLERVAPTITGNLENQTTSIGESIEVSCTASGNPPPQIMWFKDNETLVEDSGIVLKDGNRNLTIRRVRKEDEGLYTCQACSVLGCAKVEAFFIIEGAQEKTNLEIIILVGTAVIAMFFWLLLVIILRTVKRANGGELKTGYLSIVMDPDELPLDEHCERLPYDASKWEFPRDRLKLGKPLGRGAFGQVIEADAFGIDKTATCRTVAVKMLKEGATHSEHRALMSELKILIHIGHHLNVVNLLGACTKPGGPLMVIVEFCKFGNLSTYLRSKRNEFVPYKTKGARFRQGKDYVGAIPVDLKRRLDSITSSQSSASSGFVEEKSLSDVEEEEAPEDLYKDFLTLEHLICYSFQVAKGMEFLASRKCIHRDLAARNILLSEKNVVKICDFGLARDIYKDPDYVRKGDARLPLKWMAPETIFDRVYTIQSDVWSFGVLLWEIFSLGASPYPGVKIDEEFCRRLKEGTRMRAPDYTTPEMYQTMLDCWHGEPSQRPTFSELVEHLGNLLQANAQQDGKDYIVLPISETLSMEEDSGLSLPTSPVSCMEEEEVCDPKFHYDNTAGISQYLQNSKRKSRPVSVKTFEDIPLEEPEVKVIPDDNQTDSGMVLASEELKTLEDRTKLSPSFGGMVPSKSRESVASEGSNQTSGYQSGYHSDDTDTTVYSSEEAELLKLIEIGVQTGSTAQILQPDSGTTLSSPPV

`Cc1ccc(C(=O)Nc2ccc(CN3CCN(C)CC3)c(C(F)(F)F)c2)cc1C#Cc1cnc2[nH]ncc2c1` [HQP1351, 3-(2-(1H-pyrazolo[3,4-b]pyridin-5-yl)ethynyl)-4-methyl-N-(4-((4-methylpiperazin-1-yl)methyl)-3-(trifluoromethyl)phenyl)-benzamide] was tested, and the “Immune cell numbers in RANCA tumor tissues” value (RANCA tumor tissues) was “increased numbers of cytotoxic T cells (CTL, CD8^+) and natural-killer cells”, the IC50 (VEGFR2) was 6.1 nM and the GI50 (BaF3(Bcr-Abl) M244V) was 41 ± 8 nM. The GI50 (BaF3(Bcr-Abl) V299L-F39V) was 32 ± 4 nM, the GI50 (BaF3(Bcr-Abl) Wild-type) was 6 nM and the GI50 [1] was 76 ± 53 nM. For the same compound, the GI50 [2] was 14 ± 2 nM, the GI50 [3] was 79 ± 54 nM and the GI50 [4] was 61 ± 27 nM. For the same compound, the GI50 [5] was 26 ± 11 nM, the GI50 (BaF3(Bcr-Abl) E459L) was 106 nM and the GI50 (BaF3(Bcr-Abl) F359V) was 50 ± 16 nM. For the same compound, the GI50 [6] was 109 ± 4 nM, the GI50 (BaF3(Bcr-Abl) 7253H) was 7 ± 1 nM and the GI50 (BaF3(Bcr-Abl) G250E) was 29 ± 4 nM. For the same compound, the GI50 (BaF3(Bcr-Abl) T315I-255K) was 40 ± 5 nM, the GI50 [7] was 25 ± 13 nM and the GI50 (BaF3(Bcr-Abl) M351T) was 9 ± 1 nM. It also gave a GI50 [8] of 67 ± 44 nM, a GI50 (BaF3(Bcr-Abl) E255K) of 22 ± 13 nM and a GI50 [9] of 122 nM. It also gave a GI50 (BaF3(Bcr-Abl) F317L) of 8 ± 3 nM, a GI50 (BaF3(Bcr-Abl) E453K) of 3 nM and a GI50 (BaF3(Bcr-Abl) F311I) of 23 ± 13 nM. It also gave a GI50 (BaF3(Bcr-Abl) V299L) of 8 ± 4 nM and a GI50 [10] of 32 ± 25 nM.

Source: US20230404998A1, “Combination Therapies for Treating Cancer” (ASCENTAGE PHARMA (SUZHOU) CO., LTD., priority 2020, published 2023)
